Measured values from patent publication US4565811A, “Sodium salt of ursodeoxycholic sulphate” (Istituto Biologico Chemioterapico "ABC" S.p.A., priority 1983, dated 1986).
Structures can show the parent of a compound that is named as a salt.

Legend:
[1] = Toxicity of sodium ursosulphate compared with ursodeoxycholic acid; conditions: in vivo
rat [2] = assay: Acute toxicity of US in the rat by intravenous route; assay type: in vivo; set-up: key to Symptomatology: N: none; D: depression; conditions: for Symptomatology: 8 days; for Died animals: groups of 10, 8 days
Experimental: (§1) Acute toxicity of sodium ursosulphate was tested in rats by administering the different doses of the compound directly in a physiologic solution at 0.9% in a volume either of 10 ml/kg by oral route through a probe directly to the stomach or of 5 ml/kg intraperitoneously or intravenously.
(§2) The dosages administered to groups of 10 animals each are reported in the following Tables 3 to 5 together with the symptomatology observed for a period of 8 days.

[3] = as above; assay type: in vivo; set-up: key to Symptomatology: N: none; D: depression; conditions: rat, in vivo
Experimental: as §1, §2

rat [4] = assay: Acute toxicity of US in the rat by oral administration; assay type: in vivo; set-up: key to Symptomatology: N: none; D: depression; conditions: for Symptomatology: 8 days; for Died animals: groups of 10, 8 days
Experimental: as §1, §2

[5] = as above; assay type: in vivo; set-up: key to Symptomatology: N: none; D: depression; conditions: rat, in vivo
Experimental: as §1, §2

[6] = Solubility in water / acidity; assay type: physicochemical; conditions: water
rat [7] = assay: Acute toxicity of US in the rat by intraperitoneal administration; assay type: in vivo; set-up: key to Symptomatology: N: none; D: depression; conditions: for Symptomatology: 8 days; for Died animals: groups of 10, 8 days
Experimental: as §1, §2

[8] = as above; assay type: in vivo; set-up: key to Symptomatology: N: none; D: depression; conditions: rat, in vivo, ip
Experimental: as §1, §2

[9] = system: hyperdislipidemia caused by Triton WR-1339 in the rat; assay: Action on the hyperdislipidemia caused by Triton WR-1339 in the rat; assay type: in vivo, Albinus rats (Witar); conditions: for Alfa-Lipoproteins: Increase towards Group 2 / Beta-Lipoproteins: Inhibition towards Group 2 / Beta/alfa ratio: Inhibition towards Group 2 / Total cholesterol: Inhibition in comparison with Group 2 / Total lipids: Inhibition in comparison with Group 2 / Triglycerids: Inhibition in comparison with Group 2: vs Group 2 (Triton control); for Activity compared with UA: oral
Experimental: Action on the hyperdislipidemia caused by Triton WR-1339 in the rat
Albinus rats (Witar) of 300-320 g each, having been fed only with water "ad libitum" for 12 hours, were treated with US and UA, by oral route, 4 hours before and 15 hours after the administration intraperitenously of Triton WR-1339 at the dosage of 300 mg/kg in 10 ml/kg of physiologic solution at 0.9%.
US and UA dosages were 25, 50 and 100 mg/kg respectively and the rats were divided in the following groups of 10 animals each.
Group 1: Controls treated with 10 ml/kg of physiological solution at 0.9% orally.
Group 2: Controls treated with 300 mg/kg of Triton WR-1339 i.p. and 10 ml/kg of carboxy methyl cellulose (CMC) at 0.5%.
Group 3, 4 and 5: UA at 25, 50 and 100 mg/kg respectively suspended in 10 ml/kg of CMC at 0.5%.
Groups 6, 7 and 8: US at 25, 50 and 100 mg/kg respectively dissolved in 10 ml/kg of physiologic solution.
The following Tables 1 and 2 list the results of blood-tests from addominal aorta of rats sacrificed 5 hours after the last treatment: […]

[10] = rat, up to the administered doses
[11] = 25 mg/kg os, Triton WR-1339 rat
[12] = 50 mg/kg os, Triton WR-1339 rat
[13] = 100 mg/kg os, Triton WR-1339 rat

SMILES: CC(CCC(=O)O)C1CCC2C3C(OS(=O)(=O)O)CC4CC(OS(=O)(=O)O)CCC4(C)C3CCC12C (stereo not drawn) [US, sodium salt of ursodeoxycholic O-sulphate]
- Toxicity compared with ursodeoxycholic acid [1]: does not show any significative differences and maintains the values already known for ursodeoxycholic acid
- Symptomatology (rat [2]; 400 mg/kg): N
- Died animals (rat [2]; 400 mg/kg): 0 animals
- Symptomatology (rat [2]; 500 mg/kg): N
- Died animals (rat [2]; 500 mg/kg): 0 animals
- Symptomatology (rat [2]; 600 mg/kg): D
- Died animals (rat [2]; 600 mg/kg): 0 animals
- Symptomatology (rat [2]; 650 mg/kg): D + C
- Died animals (rat [2]; 650 mg/kg): 1 animals
- Symptomatology (rat [2]; 700 mg/kg): D + C
- Died animals (rat [2]; 700 mg/kg): 1 animals
- Symptomatology (rat [2]; 750 mg/kg): D + C
- Died animals (rat [2]; 750 mg/kg): 2 animals
- LD50 (rat [2]; [10]): the LD50 was not reached up to the administered doses
- mortality at 192 h ([3]; 400 mg/kg): 0%
- mortality at 192 h ([3]; 500 mg/kg): 0%
- mortality at 192 h ([3]; 600 mg/kg): 0%
- mortality at 192 h ([3]; 650 mg/kg): 10%
- mortality at 192 h ([3]; 700 mg/kg): 10%
- mortality at 192 h ([3]; 750 mg/kg): 20%
- Symptomatology (rat [4]; 1000 mg/kg): N
- Died animals (rat [4]; 1000 mg/kg): 0 animals
- Symptomatology (rat [4]; 2000 mg/kg): N
- Died animals (rat [4]; 2000 mg/kg): 0 animals
- Symptomatology (rat [4]; 3000 mg/kg): D
- Died animals (rat [4]; 3000 mg/kg): 0 animals
- Symptomatology (rat [4]; 4000 mg/kg): D
- Died animals (rat [4]; 4000 mg/kg): 0 animals
- Symptomatology (rat [4]; 5000 mg/kg): D
- Died animals (rat [4]; 5000 mg/kg): 2 animals
- Symptomatology (rat [4]; 6000 mg/kg): D
- Died animals (rat [4]; 6000 mg/kg): 4 animals
- LD50 (rat [4]; [10]): the LD50 was not reached up to the administered doses
- mortality at 192 h ([5]; 1000 mg/kg): 0%
- mortality at 192 h ([5]; 2000 mg/kg): 0%
- mortality at 192 h ([5]; 3000 mg/kg): 0%
- mortality at 192 h ([5]; 4000 mg/kg): 0%
- mortality at 192 h ([5]; 5000 mg/kg): 20%
- mortality at 192 h ([5]; 6000 mg/kg): 40%
- Solubility in water ([6]; listed as Sodium ursosulphate): very soluble in water
- Solubility in water ([6]; listed as sodium ursosulphate): very soluble in water
- Symptomatology (rat [7]; 500 mg/kg): N
- Died animals (rat [7]; 500 mg/kg): 0 animals
- Symptomatology (rat [7]; 600 mg/kg): N
- Died animals (rat [7]; 600 mg/kg): 0 animals
- Symptomatology (rat [7]; 700 mg/kg): D
- Died animals (rat [7]; 700 mg/kg): 0 animals
- Symptomatology (rat [7]; 800 mg/kg): D
- Died animals (rat [7]; 800 mg/kg): 0 animals
- Symptomatology (rat [7]; 900 mg/kg): D
- Died animals (rat [7]; 900 mg/kg): 2 animals
- LD50 (rat [7]; [10]): the LD50 was not reached up to the administered doses
- mortality at 192 h ([8]; 500 mg/kg): 0%
- mortality at 192 h ([8]; 600 mg/kg): 0%
- mortality at 192 h ([8]; 700 mg/kg): 0%
- mortality at 192 h ([8]; 800 mg/kg): 0%
- mortality at 192 h ([8]; 900 mg/kg): 10%
- Alfa-Lipoproteins Average ± SD [9, 11]: 29,2 ± 6,7 mg/100 ml serum
- Beta-Lipoproteins Average ± SD [9, 11]: 191,5 ± 42,1 mg/100 ml serum
- Beta/alfa ratio Average ± SD [9, 11]: 7,23 ± 3,6 mg/100 ml serum
- Total cholesterol Average ± SD [9, 11]: 220,8 ± 36,4 mg/100 ml serum
- Total lipids Average ± SD [9, 11]: 2697,1 ± 706,8 mg/100 ml serum
- Triglycerids Average ± SD [9, 11]: 1040,6 ± 91,08 mg/100 ml serum
- Alfa-Lipoproteins: Increase towards Group 2 ([9]; 25 mg/kg os): +30,4%
- Beta-Lipoproteins: Inhibition towards Group 2 ([9]; 25 mg/kg os): -29,9%
- Beta/alfa ratio: Inhibition towards Group 2 ([9]; 25 mg/kg os): -42,0%
- Total cholesterol: Inhibition in comparison with Group 2 ([9]; 25 mg/kg os): -25,4%
- Total lipids: Inhibition in comparison with Group 2 ([9]; 25 mg/kg os): -29,4%
- Triglycerids: Inhibition in comparison with Group 2 ([9]; 25 mg/kg os): -20,7%
- Alfa-Lipoproteins Average ± SD [9, 12]: 39,32 ± 5,5 mg/100 ml serum
- Beta-Lipoproteins Average ± SD [9, 12]: 123,8 ± 27,7 mg/100 ml serum
- Beta/alfa ratio Average ± SD [9, 12]: 3,15 ± 1,1 mg/100 ml serum
- Total cholesterol Average ± SD [9, 12]: 163,2 ± 25,7 mg/100 ml serum
- Total lipids Average ± SD [9, 12]: 1972,6 ± 550,0 mg/100 ml serum
- Triglycerids Average ± SD [9, 12]: 654,3 ± 206,5 mg/100 ml serum
- Alfa-Lipoproteins: Increase towards Group 2 ([9]; 50 mg/kg os): +75,4%
- Beta-Lipoproteins: Inhibition towards Group 2 ([9]; 50 mg/kg os): -54,7%
- Beta/alfa ratio: Inhibition towards Group 2 ([9]; 50 mg/kg os): -74,7%
- Total cholesterol: Inhibition in comparison with Group 2 ([9]; 50 mg/kg os): -44,3%
- Total lipids: Inhibition in comparison with Group 2 ([9]; 50 mg/kg os): -48,4%
- Triglycerids: Inhibition in comparison with Group 2 ([9]; 50 mg/kg os): -50,1%
- Alfa-Lipoproteins Average ± SD [9, 13]: 44,8 ± 8,5 mg/100 ml serum
- Beta-Lipoproteins Average ± SD [9, 13]: 102,3 ± 36,9 mg/100 ml serum
- Beta/alfa ratio Average ± SD [9, 13]: 2,46 ± 1,2 mg/100 ml serum
- Total cholesterol Average ± SD [9, 13]: 147,2 ± 31,3 mg/100 ml serum
- Total lipids Average ± SD [9, 13]: 1949,7 ± 273,9 mg/100 ml serum
- Triglycerids Average ± SD [9, 13]: 583,4 ± 121,1 mg/100 ml serum
- Alfa-Lipoproteins: Increase towards Group 2 ([9]; 100 mg/kg os): +100%
- Beta-Lipoproteins: Inhibition towards Group 2 ([9]; 100 mg/kg os): -72,6%
- Beta/alfa ratio: Inhibition towards Group 2 ([9]; 100 mg/kg os): -80,3%
- Total cholesterol: Inhibition in comparison with Group 2 ([9]; 100 mg/kg os): -50,3%
- Total lipids: Inhibition in comparison with Group 2 ([9]; 100 mg/kg os): -48,9%
- Triglycerids: Inhibition in comparison with Group 2 ([9]; 100 mg/kg os): -55,5%
- Dose dependence of activity inhibiting the hyperdislipidemia ([9]; 25, 50 and 100 mg/kg oral, Triton WR-1339 rat): depends on the dosage
- Activity compared with UA ([9]; Triton WR-1339 rat): more active than UA in all the considered tests
- Activity compared with UA ([9]; Triton WR-1339 rat, listed as sodium ursosulphate (US)): an activity in some cases higher than that of ursodeoxycholic acid
